# According to ChEMBL document CHEMBL3217457, “Carbazolepyrrolo[2,1-c][1,4]benzodiazepine conjugates: design, synthesis, and biological evaluation” (Medchemcomm, 2011):
# Columns and labels:
# PC-3 = assay: Growth inhibition of human PC3 cells; assay type: functional
# DU-145 = assay: Growth inhibition of human DU145 cells; assay type: functional
# SK-MEL-28 = assay: Growth inhibition of human SK-MEL-28 cells; assay type: functional
# SK-MEL-5 = assay: Growth inhibition of human SK-MEL-5 cells; assay type: functional
# [1] = Growth inhibition of human UACC257 cells; assay type: functional; settings: UACC-257
# [2] = Growth inhibition of human UACC62 cells; assay type: functional; settings: UACC-62
# A549 [3] = assay: Growth inhibition of human A549 cells; assay type: functional
# KB = assay: Growth inhibition of human KB cells; assay type: functional
# [4] = Growth inhibition of human Gurav cells; assay type: functional
# A2780 = assay: Growth inhibition of human A2780 cells; assay type: functional
# SiHa = assay: Growth inhibition of human SiHa cells; assay type: functional
# ZR-75-1 = assay: Growth inhibition of human ZR-75-1 cells; assay type: functional
# MCF7 [5] = assay: Cell cycle arrest in human MCF7 cells assessed as accumulation at G0 phase at 4 uM after 24 hrs by propidium iodide staining based flow cytometry (reference value: 2.77%); assay type: functional
# MCF7 [6] = assay: Cell cycle arrest in human MCF7 cells assessed as accumulation at G1 phase at 4 uM after 24 hrs by propidium iodide staining based flow cytometry (reference value: 57.98%); assay type: functional
# MCF7 [7] = assay: Cell cycle arrest in human MCF7 cells assessed as accumulation at S phase at 4 uM after 24 hrs by propidium iodide staining based flow cytometry (reference value: 14.30%); assay type: functional
# MCF7 [8] = assay: Cell cycle arrest in human MCF7 cells assessed as accumulation at G2/M phase at 4 uM after 24 hrs by propidium iodide staining based flow cytometry (reference value: 24.95%); assay type: functional
# MCF7 [9] = assay: Cell cycle arrest in human MCF7 cells assessed as accumulation at G0/G1 phase at 4 uM after 24 hrs by propidium iodide staining based flow cytometry (reference value: 60.75%); assay type: functional
# Calf thymus DNA = assay: Binding affinity to calf thymus DNA assessed as change in melting temperature at compound to DNA ratio of 1:5 after 18 hrs by thermal denaturation analysis; assay type: nucleic-acid assay; settings: Bos taurus
# CCRF-CEM = assay: Growth inhibition of human CCRF-CEM cells; assay type: functional
# HL-60(TB) = assay: Growth inhibition of human HL-60(TB) cells; assay type: functional
# K562 = assay: Growth inhibition of human K562 cells; assay type: functional
# [10] = Growth inhibition of human MOLT4 cells; assay type: functional; settings: MOLT-4
# RPMI-8226 = assay: Growth inhibition of human RPMI8226 cells; assay type: functional
# SR = assay: Growth inhibition of human SR cells; assay type: functional
# A549 [11] = assay: Growth inhibition of human A549/ATCC cells; assay type: functional
# [12] = Growth inhibition of human EKVX cells; assay type: functional
# HOP-62 = assay: Growth inhibition of human HOP62 cells; assay type: functional
# [13] = Growth inhibition of human HOP92 cells; assay type: functional; settings: HOP-92
# NCI-H226 = assay: Growth inhibition of human NCI-H226 cells; assay type: functional
# NCI-H23 = assay: Growth inhibition of human NCI-H23 cells; assay type: functional
# NCI-H322M = assay: Growth inhibition of human NCI-H322M cells; assay type: functional
# NCI-H460 = assay: Growth inhibition of human NCI-H460 cells; assay type: functional
# NCI-H522 = assay: Growth inhibition of human NCI-H522 cells; assay type: functional
# COLO 205 = assay: Growth inhibition of human COLO205 cells; assay type: functional
# [14] = Growth inhibition of human HCC2998 cells; assay type: functional; settings: HCC 2998
# HCT-116 = assay: Growth inhibition of human HCT116 cells; assay type: functional
# [15] = Growth inhibition of human HCT15 cells; assay type: functional; settings: HCT-15
# HT-29 = assay: Growth inhibition of human HT-29 cells; assay type: functional
# KM12 = assay: Growth inhibition of human KM12 cells; assay type: functional
# SW-620 = assay: Growth inhibition of human SW620 cells; assay type: functional
# SF-268 = assay: Growth inhibition of human SF268 cells; assay type: functional
# [16] = Growth inhibition of human SF539 cells; assay type: functional; settings: SF-539
# SNB-19 = assay: Growth inhibition of human SNB19 cells; assay type: functional
# SNB-75 = assay: Growth inhibition of human SNB75 cells; assay type: functional
# U-251 = assay: Growth inhibition of human U251 cells; assay type: functional
# [17] = Growth inhibition of human LOXIMVI cells; assay type: functional; settings: LOX IMVI
# Malme-3M = assay: Growth inhibition of human MALME-3M cells; assay type: functional
# M14 = assay: Growth inhibition of human M14 cells; assay type: functional
# SK-MEL-2 = assay: Growth inhibition of human SK-MEL-2 cells; assay type: functional
# IGROV-1 = assay: Growth inhibition of human IGROV1 cells; assay type: functional
# [18] = Growth inhibition of human OVCAR3 cells; assay type: functional; settings: OVCAR-3
# [19] = Growth inhibition of human OVCAR4 cells; assay type: functional; settings: OVCAR-4
# [20] = Growth inhibition of human OVCAR5 cells; assay type: functional; settings: OVCAR-5
# [21] = Growth inhibition of human OVCAR8 cells; assay type: functional; settings: OVCAR-8
# SK-OV-3 = assay: Growth inhibition of human SKOV3 cells; assay type: functional
# 786-0 = assay: Growth inhibition of human 786-0 cells; assay type: functional
# A498 = assay: Growth inhibition of human A498 cells; assay type: functional
# ACHN = assay: Growth inhibition of human ACHN cells; assay type: functional
# CAKI-1 = assay: Growth inhibition of human CAKI-1 cells; assay type: functional
# [22] = Growth inhibition of human RXF393 cells; assay type: functional; settings: RXF 393
# SN12C = assay: Growth inhibition of human SN12C cells; assay type: functional
# TK-10 = assay: Growth inhibition of human TK10 cells; assay type: functional
# [23] = Growth inhibition of human UO31 cells; assay type: functional; settings: UO-31
# MCF7 [24] = assay: Growth inhibition of human MCF7 cells; assay type: functional
# [25] = Growth inhibition of human MDA-MB cells; assay type: functional
# [26] = Growth inhibition of human Hs 578T cells; assay type: functional
# MDA-MB-435 = assay: Growth inhibition of human MDA-MB-435 cells; assay type: functional
# [27] = Growth inhibition of human BT549 cells; assay type: functional; settings: BT-549
# T47D = assay: Growth inhibition of human T47D cells; assay type: functional
# MDA-MB-468 = assay: Growth inhibition of human MDA-MB-468 cells; assay type: functional
compound,measurement,setting,value
COc1cc2c(cc1OCCCCCn1c3ccccc3c3ccccc31)N=C[C@@H]1CCCN1C2=O,GI50,PC-3,2300 nM
same,GI50,DU-145,2230 nM
same,GI50,SK-MEL-28,1800 nM
same,GI50,SK-MEL-5,1730 nM
same,GI50,[1],2290 nM
same,GI50,[2],1860 nM
same,GI50,A549 [3],1420 nM
same,GI50,KB,1800 nM
same,GI50,[4],1610 nM
same,GI50,A2780,1320 nM
same,GI50,SiHa,1680 nM
same,GI50,ZR-75-1,1760 nM
same,Activity,MCF7 [5],3.45%
same,Activity,MCF7 [6],68.24%
same,Activity,MCF7 [7],13.03%
same,Activity,MCF7 [8],15.38%
same,Activity,MCF7 [9],71.69%
same,ΔTm,Calf thymus DNA,4.9 °C
same,GI50,CCRF-CEM,1970 nM
same,GI50,HL-60(TB),1720 nM
same,GI50,K562,2600 nM
same,GI50,[10],2150 nM
same,GI50,RPMI-8226,1720 nM
same,GI50,SR,1540 nM
same,GI50,A549 [11],1570 nM
same,GI50,[12],5270 nM
same,GI50,HOP-62,1800 nM
same,GI50,[13],1310 nM
same,GI50,NCI-H226,2490 nM
same,GI50,NCI-H23,2690 nM
same,GI50,NCI-H322M,3830 nM
same,GI50,NCI-H460,1960 nM
same,GI50,NCI-H522,1650 nM
same,GI50,COLO 205,1640 nM
same,GI50,[14],1710 nM
same,GI50,HCT-116,1650 nM
same,GI50,[15],1670 nM
same,GI50,HT-29,2080 nM
same,GI50,KM12,1960 nM
same,GI50,SW-620,1850 nM
same,GI50,SF-268,1910 nM
same,GI50,[16],1850 nM
same,GI50,SNB-19,2050 nM
same,GI50,SNB-75,1050 nM
same,GI50,U-251,1590 nM
same,GI50,[17],2080 nM
same,GI50,Malme-3M,2200 nM
same,GI50,M14,2100 nM
same,GI50,SK-MEL-2,1670 nM
same,GI50,IGROV-1,2080 nM
same,GI50,[18],1880 nM
same,GI50,[19],3090 nM
same,GI50,[20],2420 nM
same,GI50,[21],2550 nM
same,GI50,SK-OV-3,4570 nM
same,GI50,786-0,1730 nM
same,GI50,A498,1740 nM
same,GI50,ACHN,1770 nM
same,GI50,CAKI-1,1930 nM
same,GI50,[22],4340 nM
same,GI50,SN12C,1940 nM
same,GI50,TK-10,2250 nM
same,GI50,[23],1520 nM
same,GI50,MCF7 [24],1640 nM
same,GI50,[25],2140 nM
same,GI50,[26],1970 nM
same,GI50,MDA-MB-435,1730 nM
same,GI50,[27],2030 nM
same,GI50,T47D,2790 nM
same,GI50,MDA-MB-468,2260 nM
